We go through 20 compounds from patent publication US11512042B2, “Enamine compounds for absorbance of electromagnetic energy” (Commonwealth Scientific and Industrial Research Organisation, priority 2015, dated 2022).

Several values for one entry are separate records, joined by “and”; a condition that tells them apart may be missing. Equal values may be shown once. Marks after values point to notes of the source that are not given here.

Holding throughout (assay type): physicochemical
Data set [1] can be described thus: UV absorbance spectrum in solution (λmax, λcrit, extinction coefficients). As to conditions: for λcrit: critical wavelength; for E (1%, 1 cm): mass extinction coefficient; for ε: molar extinction coefficient, in M-1 cm-1 (unit assumed). Summed up: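 Spectra taken on 0.001% solutions in methanol, 10 mm path. Breakthrough is the wavelength where transmittance rises above 1%; steepness is the nm span over which transmittance goes from 1 to 80%.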

Data set [2] in a line: % transmission spectrum of 0.1% solution (breakthrough, steepness). As to conditions: for Steepness: distance in nm over which transmittance increases from 1 to 80%; for Breakthrough (1% T at 0.1%): value in nm where transmittance increases beyond 1%, 0.1% solution. An excerpt:
FIG. 2 is a is a graphical representation of the % transmission of compounds 142 and 143 measured in a 2 mm cuvette as 0.1% solutions in methanol (142 is the left most trace);
The synthesised benzoyl functionalised compounds and their spectroscopic properties can be seen in table 2 wherein; breakthrough denotes the value in nm where transmittance increases beyond 1%; steepness refers to the distance in nm over which transmittance increases from 1 to 80% (a higher value indicates a less steep transition from absorbing to transmitting and is generally unfavourable); and ^a denotes an average of multiple measurements. As a general comment, it can be noted that the benzoyl substituted compounds gave similar absorbance maxima to the corresponding trifluoroacetyl derivative.

Data set [3] in a line: Photostability protocol: thin film irradiated with xenon arc lamp. As to conditions: 1 hour xenon arc lamp; for Photostability: ratio of absorbance at λmax irradiated vs unirradiated, ^a = average of multiple measurements. As for the experimental part: 1 mL of a 3% solution of the test compound (30 mg of test compound in 1 mL solvent) was prepared in a solvent mix made up of 50% EtOH and 25% capric/caprylic triglyceride and 25% C12-C15 alkyl benzoate. 50 μL of this solution (containing 1.5 mg of test compound) was added carefully to the centre of a glass microscope slide and the volatile components left to evaporate in the dark for at least 3 hours to give a liquid film. The prepared films were then exposed for 1 hour to an Eimac 150 W xenon arc lamp filtered through Pyrex (15 Amp supply current, samples 19 cm from the lamp) previously allowed to warm up for 15 minutes prior to sample exposure. The irradiation was performed in a fume cupboard where the air flow was sufficient to keep sample T<30° C. One hour's exposure represented a calculated radiation dose (using meter) of approximately 100 MED.
In order to calculate the photostability of the test compounds, the exposed slides were placed in a beaker and rinsed with 2×5 mL EtOH, 1×5 mL MeOH. The combined washings were then added to a 100 mL volumetric flask and made up to 100 mL total volume with methanol. The UV absorbance was then measured in a 10 mm cuvette. The percent stability is measured as the ratio of absorbance at λmax for the irradiated sample compared to the unirradiated sample.
The thin films are a good surrogate for testing the stability of a candidate in, for example, a sunscreen formulation as they use cosmetic emollients as solvent and are formed at cosmetically relevant concentrations.

In the case of `CCN(/C=C(\C(=O)C(F)(F)F)c1ccccc1)CC` [Compound 144], in data set [1], the λmax is reported as 319 nm; the λcrit turned out to be 350 nm; the “E (1%, 1 cm)” value is 860; the ε is given as 23306. In addition, in data set [2], the Steepness is given as 23 nm and the “Breakthrough (1% T at 0.1%)” value worked out at 361 nm. In addition, in data set [3], the “Photostability (% remains)” value is listed as 97% and the Photostability is 97%.

For the compound `COC(=O)c1ccc2c(c1)CCN2/C=C(\C(=O)C(F)(F)F)c1ccccc1` [Compound 201], in data set [1], the λmax was 373 nm; the λcrit is recorded as 391 nm; the “E (1%, 1 cm)” value was 1230; the ε came to 46134. In addition, in data set [2], the Steepness came to 18 nm and the “Breakthrough (1% T at 0.1%)” value came to 420 nm. In data set [3], the “Photostability (% remains)” value is on record as 97% and the Photostability worked out at 97%.

Turning to `CCOC(=O)C(=O)/C(=C\N1CCc2ccccc21)c1ccccc1` [Compound 231], in data set [1], the λmax is given as 363 nm; the λcrit came to 388 nm; the “E (1%, 1 cm)” value was 989; the ε is recorded as 31758. For the same compound, in data set [2], the Steepness worked out at 34 nm and the “Breakthrough (1% T at 0.1%)” value is 418 nm. In addition, the Photostability in data set [3] amounted to 80%.

Take `CCCN(/C=C(/C(=O)C(F)(F)F)c1ccccc1)c1ccccc1` [Compound 233]: in data set [1], the λmax was found to be 331 nm; the λcrit is 365 nm; the “E (1%, 1 cm)” value came to 734; the ε amounted to 24467. In data set [2], the Steepness is 36 nm and the “Breakthrough (1% T at 0.1%)” value is 380 nm. In addition, the Photostability in data set [3] came to 87%.

For `CCCCN(/C=C(/C(=O)C(F)(F)F)c1ccccc1)c1ccccc1` [Compound 234], in data set [1], the λmax stood at 330 nm; the λcrit is listed as 365 nm; the “E (1%, 1 cm)” value was 704; the ε was 24440. In data set [2], the Steepness is 31 nm and the “Breakthrough (1% T at 0.1%)” value came out at 381 nm. Also, in data set [3], the Photostability was 87%.

Take `CCOC(=O)C(=O)/C(=C/N(c1ccccc1)c1ccccc1)c1ccccc1` [Compound 237]: in data set [1], the λmax turned out to be 348 nm; the λcrit worked out at 380 nm; the “E (1%, 1 cm)” value stood at 775; the ε was 28737. Moreover, in data set [2], the Steepness came to 39 nm and the “Breakthrough (1% T at 0.1%)” value stood at 400 nm. In addition, the Photostability in data set [3] came to 83%.

Consider `CN(C)/C=C(/C(=O)c1ccccc1)c1ccccc1` [Compound 240], for which, in data set [1], the λmax worked out at 313 nm; the λcrit is given as 361 nm; the “E (1%, 1 cm)” value was found to be 776; the ε is reported as 19475. In data set [2], the Steepness was determined as 40 nm and the “Breakthrough (1% T at 0.1%)” value was determined as 379 nm. Besides, the Photostability in data set [3] was found to be 10%.

For `O=C(/C(=C/N1CCc2ccccc21)c1ccccc1)c1ccccc1` [Compound 243], in data set [1], the λmax is listed as 361 nm; the λcrit came out at 386 nm; the “E (1%, 1 cm)” value is on record as 893; the ε was found to be 29026. Also, in data set [2], the Steepness stood at 37 nm and the “Breakthrough (1% T at 0.1%)” value amounted to 420 nm. Besides, in data set [3], the Photostability came out at 70%.

`O=C(/C(=C/N(c1ccccc1)c1ccccc1)c1ccccc1)c1ccccc1` [Compound 244]: in data set [1], the λmax was 352 nm; the λcrit turned out to be 383 nm; the “E (1%, 1 cm)” value was 536; the ε amounted to 20114. In addition, in data set [2], the Steepness was found to be 43 nm and the “Breakthrough (1% T at 0.1%)” value worked out at 407 nm. Also, the Photostability in data set [3] stood at 58%.

On to `CCN(/C=C(/C(=O)c1ccccc1)c1ccccc1)c1ccccc1` [Compound 245], for which, in data set [1], the λmax was determined as 333 nm; the λcrit was 374 nm; the “E (1%, 1 cm)” value is 621; the ε is listed as 20292. Further, in data set [2], the Steepness was 40 nm; the “Breakthrough (1% T at 0.1%)” value was 384 nm and 394 nm. Moreover, the Photostability in data set [3] was found to be 55%.

On to `CC1(C)CN(/C=C(/C(=O)c2ccccc2)c2ccccc2)c2ccccc21` [Compound 246], for which, in data set [1], the λmax is on record as 357 nm; the λcrit amounted to 385 nm; the “E (1%, 1 cm)” value is reported as 451; the ε is recorded as 15933. In addition, in data set [2], the Steepness turned out to be 43 nm and the “Breakthrough (1% T at 0.1%)” value is reported as 405 nm. Also, in data set [3], the Photostability is listed as 53%.

Turning to `COC(=O)c1ccc2c(c1)CCN2/C=C(/C(=O)c1ccccc1)c1ccccc1` [Compound 247], in data set [1], the λmax is on record as 371 nm; the λcrit is listed as 389 nm; the “E (1%, 1 cm)” value is on record as 1096; the ε is listed as 41977. In addition, in data set [2], the Steepness was 34 nm and the “Breakthrough (1% T at 0.1%)” value is reported as 422 nm. Also, the Photostability in data set [3] is on record as 76%.

On to `CCOC(=O)C(=O)/C(=C\N(CC)c1ccccc1)c1ccccc1` [Compound 248], for which, in data set [1], the λmax is recorded as 329 nm; the λcrit was determined as 368 nm; the “E (1%, 1 cm)” value is listed as 728; the ε is 23523. In addition, in data set [2], the Steepness worked out at 38 nm and the “Breakthrough (1% T at 0.1%)” value is recorded as 383 nm. For the same compound, the Photostability in data set [3] is 78%.

For the compound `Cc1ccccc1C(=O)/C(=C/N(c1ccccc1)c1ccccc1)c1ccccc1` [Compound 250], in data set [1], the λmax turned out to be 341 nm; the λcrit stood at 373 nm; the “E (1%, 1 cm)” value is on record as 738; the ε stood at 28714. Also, in data set [2], the Steepness is 37 nm and the “Breakthrough (1% T at 0.1%)” value is 389 nm. Also, the Photostability in data set [3] turned out to be 60%.

In the case of `Cc1ccccc1C(=O)/C(=C/N1CCc2ccccc21)c1ccccc1` [Compound 251], in data set [1], the λmax was determined as 355 nm; the λcrit is 378 nm; the “E (1%, 1 cm)” value is 991; the ε stood at 33598. Besides, in data set [2], the Steepness came to 30 nm and the “Breakthrough (1% T at 0.1%)” value worked out at 399 nm. Further, in data set [3], the Photostability came to 52%.

In the case of `CCN(/C=C(/C(=O)c1ccccc1C)c1ccccc1)c1ccccc1` [Compound 252], in data set [1], the λmax was determined as 323 nm; the λcrit is 359 nm; the “E (1%, 1 cm)” value is on record as 771; the ε turned out to be 26295. Besides, in data set [2], the Steepness is recorded as 39 nm; the “Breakthrough (1% T at 0.1%)” value is 373 nm and 372 nm. In data set [3], the Photostability is listed as 48%.

For `Cc1cc(C)c(C(=O)/C(=C/N2CCc3ccccc32)c2ccccc2)c(C)c1` [Compound 253], in data set [1], the λmax came out at 355 nm; the λcrit came to 375 nm; the “E (1%, 1 cm)” value is recorded as 929; the ε came out at 34122. For the same compound, in data set [2], the Steepness is given as 26 nm and the “Breakthrough (1% T at 0.1%)” value was 392 nm. Further, the Photostability in data set [3] is 78%.

`Cc1cc(C)c(C(=O)/C(=C/N(c2ccccc2)c2ccccc2)c2ccccc2)c(C)c1` [Compound 254]: in data set [1], the λmax is recorded as 341 nm; the λcrit is on record as 369 nm; the “E (1%, 1 cm)” value is given as 661; the ε is 27592. In addition, in data set [2], the Steepness was 32 nm and the “Breakthrough (1% T at 0.1%)” value is 383 nm. In addition, the Photostability in data set [3] is reported as 88^a %.

Take `CCN(/C=C(/C(=O)c1c(C)cc(C)cc1C)c1ccccc1)c1ccccc1` [Compound 255]: in data set [1], the λmax is given as 323 nm; the λcrit is on record as 351 nm; the “E (1%, 1 cm)” value is recorded as 798; the ε turned out to be 29450. Also, in data set [2], the Steepness stood at 34 nm and the “Breakthrough (1% T at 0.1%)” value is on record as 364 nm. For the same compound, the Photostability in data set [3] is recorded as 83^a %.

As for `CCOC(=O)C(=O)/C(=C/N1CCc2cc(C(=O)OC)ccc21)c1ccccc1` [Compound 256], in data set [1], the λmax is 372 nm; the λcrit is 391 nm; the ε was 48566 and 46566. Besides, in data set [2], the Steepness is on record as 28 nm and the “Breakthrough (1% T at 0.1%)” value is on record as 421 nm. Besides, the Photostability in data set [3] was 85%.
